Source: patent publication US12188040B2, “Method for enhancing gene expression using AAV vector” (priority 2018, dated 2025)
“And” between values parts separate entries of the source, which are not always exact repeats. Equal entries are not always repeated. Where two headings read alike, the source gives them in different places.

Test system: HEK293 cells
Settings: for GFP intensity: Exp 2, AAV3B 6×10^7 vg/well, iso-osmotic additives: sucrose 125.0, glucose 132.3, mannitol 132.3, NaCl 71.5 mM; for Effect of enhancement compared among the sugars: monosaccharides 100 or 200 mM; for D/L ratio of expression intensity: 132 mM
Experimental: As the first procedure, 4 methods of the addition were carried out, including adding sucrose immediately (5 minutes or less) after the administration of the AAV vector, and the administration of the AAV vector immediately (5 minutes or less) after, 10 minutes after or 1 hour after adding sucrose to cells.
In the same manner as the above-described procedure, the GFP expression level was measured 3 days later.
In the same manner as the above-described procedures, the GFP expression level was measured 3 days later.
AAV3B-CMV-AcGFP was mixed in advance with sucrose at each of various concentrations, and the mixture was allowed to stand at room temperature for 1 hour followed by administration to cells. […] In order to prevent cell damage due to a buffer at the time of dilution of sucrose, medium replacement was carried out using a sucrose solution having the same concentration that was prepared by the medium 3 hours after the administration.

[1] = Exp 5, AAV3B 1×10^8 vg/well premixed 1 h, glucose 132 mM final, Day 1
[2] = Exp 5, AAV3B 1×10^8 vg/well premixed 1 h, glucose 132 mM final, Day 2
[3] = Exp 5, AAV3B 1×10^8 vg/well premixed 1 h, glucose 132 mM final, Day 3
[4] = Exp 8, disaccharide 100 mM in medium, AAV3B 1×10^8 vg/well, Day 3
[5] = Exp 8, disaccharide 100 mM, Day 3
[6] = Exp 8, disaccharide 125 mM in medium, AAV3B 1×10^8 vg/well, Day 3
[7] = Exp 8, disaccharide 125 mM, Day 3
[8] = Exp 8, disaccharide 150 mM in medium, AAV3B 1×10^8 vg/well, Day 3
[9] = Exp 8, disaccharide 150 mM, AAV3B 1×10^8 vg/well, Day 1
[10] = Exp 8, disaccharide 150 mM, AAV3B 1×10^8 vg/well, Day 2
[11] = Exp 8, disaccharide 150 mM, AAV3B 1×10^8 vg/well, Day 6
[12] = Exp 9, monosaccharide 100 mM, 3 days
[13] = Exp 9, monosaccharide 100 mM, AAV3B 1×10^8 vg/well premixed 1 h, 3 days
[14] = Exp 9, monosaccharide 200 mM, 3 days
[15] = Exp 9, monosaccharide 200 mM, AAV3B 1×10^8 vg/well premixed 1 h, 3 days
[16] = Exp 8, disaccharide 150 mM, Day 3

O=C[C@@H](O)[C@H](O)[C@@H](O)[C@@H](O)CO [L-Glucose, L-glucose, reference compound]
Fluorescence Intensity [1]: 104.7 | Fluorescence Intensity [2]: 669.2 | Fluorescence Intensity [3]: 1397.7 | Relativeness (vs Glucose(−)) (Exp 5, glucose 132 mM final, Day 1): 11 times and 11.0 times

OC[C@H]1O[C@@H](O[C@H]2[C@H](O)[C@@H](O)C(O)O[C@@H]2CO)[C@H](O)[C@@H](O)[C@H]1O (some centres unmarked) [Lactose, lactose]
Fluorescence Intensity [4]: 1189.0 | Relativeness (vs No Sugar) [5]: 2.0 | Fluorescence Intensity [6]: 1880.3 | Relativeness (vs No Sugar) [7]: 3.1 | Fluorescence Intensity [8]: 3606.8 | Fluorescence Intensity [9]: 503.2 | Fluorescence Intensity [10]: 2097.0 | Fluorescence Intensity [11]: 10798.2

OC[C@@H](O)[C@@H](O)[C@H](O)[C@H](O)CO [Mannitol, mannitol, reference compound]
GFP intensity (3 days): 342.8

O=C(CO)[C@@H](O)[C@H](O)[C@H](O)CO [Fructose, fructose]
Relativeness (vs (−)) [12]: 2.7 | Fluorescence Intensity [13]: 402.0 | Relativeness (vs (−)) [14]: 16.2 times | Fluorescence Intensity [15]: 2378.5 | Effect of enhancement compared among the sugars (Exp 9, 3 days): comparable to that of sucrose

OC[C@H]1O[C@H](O[C@H]2O[C@H](CO)[C@@H](O)[C@H](O)[C@H]2O)[C@H](O)[C@@H](O)[C@@H]1O [Trehalose, trehalose]
Fluorescence Intensity [4]: 995.7 | Relativeness (vs No Sugar) [5]: 1.6 | Fluorescence Intensity [6]: 1249.0 | Relativeness (vs No Sugar) [7]: 2.1 | Fluorescence Intensity [8]: 1903.7 | Fluorescence Intensity [9]: 230.7 | Fluorescence Intensity [10]: 949.8 | Fluorescence Intensity [11]: 6490.7 | Relativeness (vs No Sugar) [16]: 3.1

O=C[C@H](O)[C@@H](O)[C@@H](O)[C@H](O)CO [Galactose, galactose]
Relativeness (vs (−)) [12]: 1.3 | Fluorescence Intensity [13]: 189.5 | Relativeness (vs (−)) [14]: 4.0 times | Fluorescence Intensity [15]: 583.5 | Effect of enhancement compared among the sugars (Exp 9, 3 days): lower than those of the other sugars

OC[C@H]1O[C@H](O[C@H]2[C@H](O)[C@@H](O)[C@H](O)O[C@@H]2CO)[C@H](O)[C@@H](O)[C@@H]1O [Maltose, maltose]
Fluorescence Intensity [4]: 1158.0 | Relativeness (vs No Sugar) [5]: 1.9 | Fluorescence Intensity [6]: 1833.5 | Relativeness (vs No Sugar) [7]: 3.0 | Fluorescence Intensity [8]: 3281.8 | Fluorescence Intensity [9]: 532.7 | Fluorescence Intensity [10]: 2009.0 | Relativeness (vs No Sugar) [16]: 5.4

O=C[C@H](O)[C@@H](O)[C@H](O)[C@H](O)CO [D-Glucose, D-glucose]
D/L ratio of expression intensity (Exp 5, Day 1): 1.5 times | D/L ratio of expression intensity (Exp 5, Day 2): 1.8 | D/L ratio of expression intensity (Exp 5, Day 3): 2.1 times | Fluorescence Intensity [1]: 161.0 | Fluorescence Intensity [2]: 1232.5 | Fluorescence Intensity [3]: 2966.3

[Cl-].[Na+] [NaCl, reference compound]
GFP intensity (3 days): 2.5
